Source: publication PMC12278462, “Site-selective arylations of nature-inspired flavonoids or steroidal phenols via C—H or O—H activation” (Journal of Enzyme Inhibition and Medicinal Chemistry, 2025)
Where two headings read alike, the source gives them in different places.

Columns and labels:
17β-HSD1 = target: T1, 17β-HSD1 (Homo sapiens, UniProt P14061); assay: 17β-HSD1 enzymatic assay (E1 to E2, LC-MS/MS); format: biochemical; details: for inhibition at 10 µM / inhibition at 100 µM: read-out: 17β-HSD1 Inhibition (% ± SD)
T1 sequence (P14061 1-328): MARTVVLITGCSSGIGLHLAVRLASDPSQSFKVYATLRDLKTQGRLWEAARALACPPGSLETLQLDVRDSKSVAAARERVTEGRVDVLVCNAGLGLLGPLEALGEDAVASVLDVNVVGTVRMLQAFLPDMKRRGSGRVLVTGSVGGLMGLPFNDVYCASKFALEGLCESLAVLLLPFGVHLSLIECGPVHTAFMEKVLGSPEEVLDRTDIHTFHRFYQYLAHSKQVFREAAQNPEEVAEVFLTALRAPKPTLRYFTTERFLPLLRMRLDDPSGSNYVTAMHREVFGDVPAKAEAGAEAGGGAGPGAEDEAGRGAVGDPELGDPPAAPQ
Protocol: The bacterial homogenate of E. coli overexpressing HSD17B1 was previously prepared as described in references ^S2,S3, and stored in aliquots at -80 °C. Before conducting experiments, aliquots were quickly thawed and diluted twice with 100 mM sodium phosphate buffer (pH 6.5; #14457, #1411007, Kemika), then kept on ice. The enzymatic assay was performed as described in ^S3. Briefly, a 1 mL enzymatic reaction mixture was prepared in 2 mL microcentrifuge tubes with the following components: 10 µL of the test inhibitor dissolved in dimethyl sulfoxide (DMSO; #276855, Sigma Aldrich) or 10 µL of DMSO for control samples, 5 µL of 14 µM substrate estrone (E1; CAS 53-16-7; #E2300-000, Steraloids), 10 µL of 10 mM NADPH (#AE14, Carl Roth) prepared in 100 mM sodium phosphate buffer, and 965 µL of 100 mM sodium phosphate buffer (pH 6.5). The reaction mixture was mixed thoroughly before adding 10 µL of bacterial homogenate. Immediately after addition, the tubes were transferred to an Eppendorf thermoshaker (#5382000031, Eppendorf) and incubated at 37 °C for 10 minutes. To stop the reaction, 60 µL of 1.26 M ascorbic acid (#A92902, Sigma Aldrich) in methanol (#34966, Honeywell/Riedel-de Haen) /acetic acid (#1.00063, Merck) (99:1, v/v) was added. The samples were then immediately processed using solid-phase extraction (SPE). The assay was repeated in three independent experiments, with each experiment performed in technical duplicate.
The preparation of samples for liquid chromatography-tandem mass spectrometry (LC-MS/MS) involved SPE. Stock solutions of E1 and 17β-estradiol (E2; CAS: 50-28-2; #142406, Steraloids) were prepared gravimetrically and dissolved in methanol (#34966, Honeywell/Riedel-de Haen). A working calibrator solution containing both steroids was then prepared by mixing appropriate volumes of the stock solutions in methanol to achieve a final concentration of 1 µg/mL for each steroid. Eight-point calibration curves (excluding zero and blank) were prepared in 100 mM sodium phosphate buffer (pH 6.5). For each 1 mL reaction mixture or calibrator, 10 µL of 100 ng/mL internal standard solution containing [2,3,4-13C3]-17β-estradiol (#719552, Sigma Aldrich) was added. Samples were mixed thoroughly and incubated at room temperature for 15 minutes.
SPE was performed using Strata X 33 µm polymeric reversed-phase columns (30 mg/mL tubes; #8B-S100-TAK, Phenomenex). The procedure involved the following steps: column conditioning with 1 mL of methanol, column equilibration with 1 mL of H₂O (#1.15333, Supelco), sample loading (1 mL sample or calibrator), column washing with 1 mL of H₂O, column drying under high vacuum for 10 minutes, and finally elution with 1 mL of methanol directly into HPLC glass vials (#702713, Macherey-Nagel GmbH/Co). The eluted samples were stored at -20 °C until LC-MS/MS analysis.

MCF-7 = assay: MTT antiproliferative assay, MCF-7; format: cell-based, human; details: for inhibition at 10 µM: MCF7, 10 µM; for inhibition at 30 µM: MCF7, 30 µM; for IC50: read-out: calculated IC50 MCF-7
Protocol: (§1) We evaluated the cytotoxic activity of the newly synthesised arylated compounds 13–17 by the MTT assay[37] on a panel of human adherent cancer cell lines. The panel included breast (MCF-7 and MDA MB-231) and cervical (HeLa, SiHa and C33A) cancer cell lines differing in receptorial or HPV status. Tumour selectivity was determined on the NIH/3T3 mouse fibroblast cell line.
(§2) Briefly, the panels of breast and cervical cancerous cell lines, differing by their receptorial and HPV status were used, precisely MCF-7 (ER, PR and HER2 positive) and MDA-MB-231 (TNBC) breast carcinoma and HeLa (HPV18+), SiHa (HPV16+), C33A (HPV-) cervical carcinoma cells. Non-cancerous NIH/3T3 mouse fibroblast cell line was used for selectivity study. MCF-7, MDA-MB-231, Hela and NIH/3T3 cell lines were purchased from ECACC (European Collection of Cell Cultures, Salisbury, UK), while SiHa and C33A from ATCC (American Tissue Culture Collection, LGC Standards GmbH, Wesel, Germany). Cells were maintained in Eagle's Minimum Essential Medium (EMEM, Capricorn Scientific GmbH, Ebsdorfergrund, Germany) supplemented with 10% heat-inactivated fetal bovine serum (FBS), 1% non-essential amino acids (NEAA), and 1% antibiotic-antimycotic mixture (penicillin–streptomycin). The cells were maintained at 37 °C in a humidified atmosphere containing 5% CO2.
(§3) For measurements cells were seeded for 96-well plates at a density of 5 000/well, except for C33A, which was seeded in 10 000cells for each well. After overnight standing cells were treated with 10 and 30 µM solutions for screening and increasing concentrations (0.1-30.0 µM) of the test compounds were used for concentration-response curves. After incubation for 72 hours under cell culturing condition 5 mg/ml MTT (3-(4,5-[…])-2,5-diphenyl-2H-tetrazolium bromide) solution was added for another 4 h. The precipitated formazan crystals were solubilized in DMSO and the absorbance was measured at 545 nm with a microplate reader (BMG Labtech, Ortenberg, Germany). Wells with untreated cells were utilized as control, and inhibition % were calculated by GraphPad Prism v 9.0 software (GraphPad Software, San Diego, CA, USA). If the growth-inhibition exceeded 70% at 30 µM concentration during the screening concentration-response curves were fitted and IC50 values were calculated by GraphPad Prism v 9.0. The experiments were performed with five parallel wells for each experimental condition and repeated at least twice.

HeLa = assay: MTT antiproliferative assay, HeLa; format: cell-based, human; details: 72 h; for IC50: read-out: calculated IC50 HeLa
Protocol: as §1, §2, §3

C33A = assay: MTT antiproliferative assay, C33A; format: cell-based, human; details: 72 h; for IC50: read-out: calculated IC50 C33A
Protocol: as §1, §2, §3

[1] = tested on: NIH/3T3 mouse fibroblast cell line; assay: MTT assay, tumour selectivity on non-cancerous fibroblasts; format: cell-based; details: for inhibition at 10 µM: NIH3T3, 10 µM; for inhibition at 30 µM: NIH3T3, 30 µM; for IC50: read-out: calculated IC50 NIH/3T3
Protocol: as §1, §2, §3

MDA-MB-231 = assay: MTT antiproliferative assay, MDA-MB-231; format: cell-based, human; details: for inhibition at 10 µM: MDA-MB-231, 10 µM; for inhibition at 30 µM: MDA-MB-231, 30 µM; for IC50: read-out: calculated IC50 MDA-MB-231
Protocol: as §1, §2, §3

SiHa = assay: MTT antiproliferative assay, SiHa; format: cell-based, human; details: 72 h; for IC50: read-out: calculated IC50 SiHa
Protocol: as §1, §2, §3

| Compound | inhibition at 10 µM (17β-HSD1; 10 µM test concentration) [%] | inhibition at 10 µM (MCF-7; Homo sapiens, 72 h) [%] | inhibition at 30 µM (MCF-7; Homo sapiens, 72 h) [%] | inhibition at 10 µM (HeLa; Homo sapiens, HeLa) [%] | inhibition at 30 µM (HeLa; Homo sapiens, HeLa) [%] | inhibition at 10 µM (C33A; Homo sapiens, C-33-A) [%] | inhibition at 30 µM (C33A; Homo sapiens, C-33-A) [%] | inhibition at 10 µM ([1]; Mus musculus, 72 h) [%] | inhibition at 30 µM ([1]; Mus musculus, 72 h) [%] | inhibition at 10 µM (MDA-MB-231; Homo sapiens, 72 h) [%] | inhibition at 30 µM (MDA-MB-231; Homo sapiens, 72 h) [%] | inhibition at 10 µM (SiHa; Homo sapiens, SiHa) [%] | inhibition at 30 µM (SiHa; Homo sapiens, SiHa) [%] | other results |
| --- | --- | --- | --- | --- | --- | --- | --- | --- | --- | --- | --- | --- | --- | --- |
| C[C@@]12CC[C@@H]3c4cc(-c5ccccc5)c(O)cc4CC[C@H]3[C@@H]1CCC2=O [2-Ph] | 54 ± 7.8 | – | – | – | – | – | – | – | – | – | – | – | – | inhibition at 100 µM (17β-HSD1; 100 µM test concentration): 59.4 ± 7.8% |
| C[C@@]12CC[C@@H]3c4ccc(O)c(-c5ccccc5)c4CC[C@H]3[C@@H]1CCC2=O [4-Ph, reference compound] | 41.4 ± 0.2 | – | – | – | – | – | – | – | – | – | – | – | – | inhibition at 100 µM (17β-HSD1; 100 µM test concentration): 52.1 ± 17.4% |
| CN(C)C(=O)Oc1cc2c(c(-c3ccccc3)c1)[C@H]1CC[C@@]3(C)C(=O)CC[C@H]3[C@@H]1CC2 [13a, 3-(N,N-Dimethylcarbamoyloxy)-1-phenyl-13α-estra-1,3,5(10)-triene-17-one] | – | 22.5 | 52.8 | 30.9 | 59.9 | < 10 | 27.2 | 13.5 | 22.5 | < 10 | 41 | 13.7 | 41 | 17β-HSD1 Inhibition (% ± SD) (17β-HSD1; 10 µM test concentration): No inhibition; inhibition at 100 µM (17β-HSD1): 33.6 ± 14.9% |
| CN(C)C(=O)Oc1cc2c(c(-c3ccc(Br)cc3)c1)[C@H]1CC[C@@]3(C)C(=O)CC[C@H]3[C@@H]1CC2 [13b, 1-(4-bromophenyl)-3-(N,N-dimethylcarbamoyloxy)-13α-estra-1,3,5(10)-triene-17-one] | – | 37.5 | 68.7 | 53.6 | 59.3 | < 10 | 57.8 | < 10 | 46.3 | < 10 | 13.9 | 38.6 | 40 | inhibition at 10 µM (17β-HSD1): 14.5 ± 8.4%; inhibition at 100 µM (17β-HSD1): 42.2 ± 18.6% |
| CCCCOC1(c2cc(=O)c3c(Oc4ccccc4)cc(O)cc3o2)C=CC(=O)C=C1 [17a, 2-(1-Butoxy-4-oxocyclohexa-2,5-dienyl)-7-hydroxy-5-phenoxy-chromen-4-one] | – | 93.1 | 93.7 | 93.6 | 94.3 | 98.1 | 98.5 | 94.2 | 98.7 | 95.7 | 96.9 | 86.2 | 95 | IC50 (MCF-7; Homo sapiens, MCF7, 72 h): 970 nM; IC50 (HeLa; Homo sapiens, HeLa): 1160 nM; IC50 (C33A; Homo sapiens, C-33-A): 430 nM; IC50 ([1]; Mus musculus, NIH3T3, 72 h): 2330 nM; IC50 (MDA-MB-231; Homo sapiens, MDA-MB-231, 72 h): 720 nM; IC50 (SiHa; Homo sapiens, SiHa): 1290 nM |
| CCCCOC1(c2cc(=O)c3c(Oc4ccc(Br)cc4)cc(O)cc3o2)C=CC(=O)C=C1 [17b, 5-(4-Bromophenoxy)-2-(1-butoxy-4-oxocyclohexa-2,5-dienyl)-7-hydroxy-chromen-4-one] | – | 97.4 | 98.4 | 97 | 97.7 | 97.7 | 97.8 | 97.5 | 98.6 | 97 | 97.9 | 84.5 | 93.8 | IC50 (MCF-7; Homo sapiens, MCF7, 72 h): 1150 nM; IC50 (HeLa; Homo sapiens, HeLa): 1090 nM; IC50 (C33A; Homo sapiens, C-33-A): 520 nM; IC50 ([1]; Mus musculus, NIH3T3, 72 h): 1610 nM; IC50 (MDA-MB-231; Homo sapiens, MDA-MB-231, 72 h): 730 nM; IC50 (SiHa; Homo sapiens, SiHa): 1390 nM |
| N.N.[Cl][Pt][Cl] [Cisplatin, reference compound] | – | – | – | – | – | – | – | – | – | – | – | – | – | IC50 (MCF-7; 72 h): 5800 nM; IC50 (HeLa): 12400 nM; IC50 (C33A): 3700 nM; IC50 ([1]; 72 h): 4700 nM; IC50 (MDA-MB-231; 72 h): 19100 nM; IC50 (SiHa): 7800 nM |
| C[C@]12CC[C@H]3C(=CCc4cc(O)ccc43)[C@@H]1CCC2=O [Equilin, reference compound] | 85.9 ± 1.6 | – | – | – | – | – | – | – | – | – | – | – | – | – |
| C[C@@]12CC[C@@H]3c4c(cc(OCc5cn(Cc6ccccc6)nn5)cc4-c4ccc(Br)cc4)CC[C@H]3[C@@H]1CCC2=O [compound 16, 3-[{1-Benzyl-1H-1,2,3-triazol-4-yl}methoxy]-1-(4-bromophenyl)-13a-estra-1,3,5 (10)-trien-17-one] | – | < 10 | < 10 | 22.4 | 33.1 | < 10 | < 10 | < 10 | 11.2 | < 10 | < 10 | < 10 | 10.4 | – |
